Where only a bound is given, the exact number is not on record here.

In the assay the target is Polθ theta (1-899) (hPolQ) (Homo sapiens (Human), UniProt O75417). The experiment in a line: Biological Assay 1: Polθ ATPase activity, NADH oxidation-coupled enzymatic assay (10 nM enzyme, 30 min). The class given is biochemical. To be noted: Polθ (1-899) 10 nM, 100 μM ATP, 300 nM dT50 ssDNA; Examples 1 to 268; read-out: ATPase NADH coupling:Standard Screening:hPolQ IC50. The essentials: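 ATP turnover was coupled to NADH oxidation and followed at 340 nm every minute for 30 min. Enzyme (residues 1-899, 10 nM) sat with compound for 15 min at room temperature before an equal-volume addition of 100 μM ATP plus 300 nM dT50 ssDNA. Progress-curve slopes from 10-point dilutions were fitted by a four-parameter model.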
Sequence of Polθ theta (1-899) (hPolQ) (O75417 1-899): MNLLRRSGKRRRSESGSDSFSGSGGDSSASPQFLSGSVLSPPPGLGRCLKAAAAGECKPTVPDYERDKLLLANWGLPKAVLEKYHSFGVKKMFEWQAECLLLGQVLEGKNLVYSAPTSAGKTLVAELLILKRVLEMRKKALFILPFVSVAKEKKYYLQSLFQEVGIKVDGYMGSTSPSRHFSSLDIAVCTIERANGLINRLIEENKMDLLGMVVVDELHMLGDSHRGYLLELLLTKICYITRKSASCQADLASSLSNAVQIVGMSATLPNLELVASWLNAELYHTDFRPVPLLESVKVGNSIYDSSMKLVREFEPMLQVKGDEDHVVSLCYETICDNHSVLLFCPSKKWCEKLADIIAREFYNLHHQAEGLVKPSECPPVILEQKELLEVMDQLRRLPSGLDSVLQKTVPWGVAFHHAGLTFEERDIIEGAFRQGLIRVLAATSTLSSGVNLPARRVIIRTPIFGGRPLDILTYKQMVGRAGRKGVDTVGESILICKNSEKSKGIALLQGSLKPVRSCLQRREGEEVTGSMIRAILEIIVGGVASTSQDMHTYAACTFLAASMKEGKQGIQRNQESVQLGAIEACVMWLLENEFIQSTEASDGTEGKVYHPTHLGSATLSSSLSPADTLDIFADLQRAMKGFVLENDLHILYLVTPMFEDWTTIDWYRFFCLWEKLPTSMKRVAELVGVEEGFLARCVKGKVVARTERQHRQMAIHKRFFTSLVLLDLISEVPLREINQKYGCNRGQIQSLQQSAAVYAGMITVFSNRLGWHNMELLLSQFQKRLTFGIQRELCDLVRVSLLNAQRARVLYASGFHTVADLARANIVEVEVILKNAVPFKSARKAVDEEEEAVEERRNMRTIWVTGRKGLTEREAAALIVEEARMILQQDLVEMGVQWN

For the molecule `Cc1cc(C2CCOCC2)c(C(=O)Nc2nnc(OCc3ccc(Cl)cn3)s2)cn1` [Example 18, N-(5-((5-chloropyridin-2-yl)methoxy)-1,3,4-thiadiazol-2-yl)-6-methyl-4-(tetrahydro-2H-pyran-4-yl)nicotinamide], the IC50 was 1 to 10 µM.
To `COc1cnc(Cl)cc1-c1cc(C)ncc1C(=O)Nc1nnc(OC[C@H]2CCC[C@@H]2O)s1` (single isomer, unassigned) [Example 256, 2′-chloro-N-(5-((2-hydroxycyclopentyl)methoxy)-1,3,4-thiadiazol-2-yl)-5′-methoxy-6-methyl-(4,4′-bipyridine)-3-carboxamide] belongs no more than 0.2 µM; to `Cc1cc(-c2c(F)cccc2OC(F)F)c(C(=O)Nc2nnc(OCc3ccc([C@H](C)O)cn3)s2)cn1` [Example 56, 4-(2-(difluoromethoxy)-6-fluorophenyl)-N-(5-((5-((S)-1-hydroxyethyl)pyridin-2-yl)methoxy)-1,3,4-thiadiazol-2-yl)-6-methylnicotinamide], no more than 0.2 µM; to `Cc1cc(-c2cc(C)ncc2C(=O)Nc2nnc(OCc3ccc(C(C)(C)O)cn3)s2)ccn1` [Example 89, N-(5-((5-(2-hydroxypropan-2-yl)pyridin-2-yl)methoxy)-1,3,4-thiadiazol-2-yl)-2′,6-dimethyl-(4,4′-bipyridine)-3-carboxamide], 0.2 to 0.5 µM.
To `COc1cnc(Cl)cc1-c1cc(C)ncc1C(=O)Nc1nnc(OC[C@@]2(C)CCOC2)s1` (single isomer, unassigned) [Example 161] belongs no more than 0.2 µM.
To `COc1cnc(Cl)cc1-c1cc(C)ncc1C(=O)Nc1nnc(OCC2CC3(CC(O)C3)C2)s1` (stereo not drawn) [Example 138, 2′-chloro-N-(5-((6-hydroxyspiro[3.3]heptan-2-yl)methoxy)-1,3,4-thiadiazol-2-yl)-5′-methoxy-6-methyl-[4,4′-bipyridine]-3-carboxamide] belongs no more than 0.2 µM; to `COc1cccc(F)c1-c1cc(C)ncc1C(=O)Nc1nnc(OCc2cnc(CO)cn2)s1` [Example 97, 4-(2-fluoro-6-methoxyphenyl)-N-(5-((5-(hydroxymethyl)pyrazin-2-yl)methoxy)-1,3,4-thiadiazol-2-yl)-6-methylnicotinamide], no more than 0.2 µM; to `COc1cnc(Cl)cc1-c1cc(C)ncc1C(=O)Nc1nnc(OC[C@H]2CC[C@@H](O)C2)s1` (single isomer, unassigned) [Example 210], no more than 0.2 µM.
Consider `COc1cnc(C)cc1-c1cc(C)ncc1C(=O)Nc1nnc(OCc2ccc(Cl)cn2)s1` [Example 36, N-(5-((5-chloropyridin-2-yl)methoxy)-1,3,4-thiadiazol-2-yl)-5′-methoxy-2′,6-dimethyl-(4,4′-bipyridine)-3-carboxamide], for which the IC50 is no more than 0.2 µM.
As for `COc1cnc(Cl)cc1-c1cc(C)ncc1C(=O)Nc1nnc(OC[C@@H]2COC[C@@H]2C)s1` (single isomer, unassigned) [Example 265], the IC50 is no more than 0.2 µM.
To `COc1cnc(Cl)cc1-c1cc(C)ncc1C(=O)Nc1nnc(OC[C@@H]2COC(C)(C)CO2)s1` (single isomer, unassigned) [Example 222] belongs no more than 0.2 µM; to `COc1cnc(Cl)cc1-c1cc(C)ncc1C(=O)Nc1nnc(OC[C@H]2CC[C@H](OC)CC2)s1` [Example 137, 2′-chloro-5′-methoxy-N-(5-(((1r,4r)-4-methoxycyclohexyl)methoxy)-1,3,4-thiadiazol-2-yl)-6-methyl-[4,4′-bipyridine]-3-carboxamide], no more than 0.2 µM.
With `COc1cnc(C)cc1-c1cc(C)ncc1C(=O)Nc1nnc(OCc2ccc(OC(F)F)cn2)s1` [Example 82, N-(5-((5-(difluoromethoxy)pyridin-2-yl)methoxy)-1,3,4-thiadiazol-2-yl)-5′-methoxy-2′,6-dimethyl-(4,4′-bipyridine)-3-carboxamide], the IC50 was no more than 0.2 µM.
In the case of `COc1cnc(Cl)cc1-c1cc(C)ncc1C(=O)Nc1nnc(OC[C@H]2CCOC2(C)C)s1` (single isomer, unassigned) [Example 190] it was no more than 0.2 µM; in that of `COc1cnc(Cl)cc1-c1cc(C)ncc1C(=O)Nc1nnc(OC[C@@H]2CO[C@H](C)C2)s1` (single isomer, unassigned) [Example 253], no more than 0.2 µM.
To `COc1cnc(Br)cc1-c1cc(C)ncc1C(=O)Nc1nnc(OCC2CCOC2)s1` (racemic) [Example 260, 2′-bromo-5′-methoxy-6-methyl-N-(5-((tetrahydrofuran-3-yl)methoxy)-1,3,4-thiadiazol-2-yl)-(4,4′-bipyridine)-3-carboxamide] belongs no more than 0.2 µM; to `COc1cnc(Cl)cc1-c1cc(C)ncc1C(=O)Nc1nnc(OCC2CCOC2)s1` (stereo in doubt) [Example 171, (S)-2′-chloro-5′-methoxy-6-methyl-N-(5-((tetrahydrofuran-3-yl)methoxy)-1,3,4-thiadiazol-2-yl)-(4,4′-bipyridine)-3-carboxamide], no more than 0.2 µM.
In the case of `COc1cnc(Cl)cc1-c1cc(C)ncc1C(=O)Nc1nnc(OCC2CCOC2)s1` (stereo in doubt) [Example 170, (R)-2′-chloro-5′-methoxy-6-methyl-N-(5-((tetrahydrofuran-3-yl)methoxy)-1,3,4-thiadiazol-2-yl)-(4,4′-bipyridine)-3-carboxamide] it was no more than 0.2 µM; in that of `COc1cnc(Cl)c(F)c1-c1cc(C)ncc1C(=O)Nc1nnc(OCC2CCOC2)s1` (stereo in doubt) [Example 184, 2′-chloro-3′-fluoro-5′-methoxy-6-methyl-N-(5-(((S)-tetrahydrofuran-3-yl)methoxy)-1,3,4-thiadiazol-2-yl)-(4,4′-bipyridine)-3-carboxamide], no more than 0.2 µM; in that of `COc1ccc(F)cc1-c1cc(C)ncc1C(=O)Nc1nnc(OCc2ccc(Cl)cn2)s1` [Example 13, N-(5-((5-chloropyridin-2-yl)methoxy)-1,3,4-thiadiazol-2-yl)-4-(5-fluoro-2-methoxyphenyl)-6-methylnicotinamide], no more than 0.2 µM.
As to `COc1ccccc1-c1cc(C)ncc1C(=O)Nc1nnc(OCc2ccc3c(n2)CCNC3)s1` [Example 71, 4-(2-methoxyphenyl)-6-methyl-N-(5-(5,6,7,8-tetrahydro-1,6-naphthyridin-2-ylmethoxy)-1,3,4-thiadiazol-2-yl)pyridine-3-carboxamide], the IC50 was 0.5 to 1 µM.
Regarding `COc1cnc(Cl)cc1-c1cc(C)ncc1C(=O)Nc1nnc(OC[C@@H]2CO[C@@H](CO)CO2)s1` (racemic) [Example 238, rel-2′-chloro-N-(5-(((2s,5s)-5-(hydroxymethyl)-1,4-dioxan-2-yl)methoxy)-1,3,4-thiadiazol-2-yl)-5′-methoxy-6-methyl-(4,4′-bipyridine)-3-carboxamide], the IC50 is no more than 0.2 µM.
In the case of `COc1cnc(Cl)cc1-c1cc(C)ncc1C(=O)Nc1nnc(OCC2CCO2)s1` (racemic) [Example 165, 2′-chloro-5′-methoxy-6-methyl-N-(5-(oxetan-2-ylmethoxy)-1,3,4-thiadiazol-2-yl)-(4,4′-bipyridine)-3-carboxamide] it was no more than 0.2 µM.
To `COc1cnc(Cl)cc1-c1cc(C)ncc1C(=O)Nc1nnc(OC[C@@H]2CCC[C@H]2O)s1` (single isomer, unassigned) [Example 255, 2′-chloro-N-(5-((2-hydroxycyclopentyl)methoxy)-1,3,4-thiadiazol-2-yl)-5′-methoxy-6-methyl-(4,4′-bipyridine)-3-carboxamide] belongs no more than 0.2 µM.

For the origin of these results see US20250325552A1, “SUBSTITUTED THIADIAZOLYL DERIVATIVES AS DNA POLYMERASE THETA INHIBITORS” (IDEAYA Biosciences, Inc., priority 2020, published 2025).
